In one experiment the target is T1, Human Factor XIIa (Homo sapiens, UniProt P00748).
T1 construct: purchased Enzyme Research Laboratories
T1 sequence (P00748 373-615 limits assumed): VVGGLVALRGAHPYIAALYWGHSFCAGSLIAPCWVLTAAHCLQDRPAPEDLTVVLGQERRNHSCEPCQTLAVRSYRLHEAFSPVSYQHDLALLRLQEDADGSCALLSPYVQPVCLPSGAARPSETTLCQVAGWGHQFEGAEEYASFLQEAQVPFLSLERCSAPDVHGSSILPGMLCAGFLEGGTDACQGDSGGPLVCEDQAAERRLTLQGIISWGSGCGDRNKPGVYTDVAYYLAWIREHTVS
In words: Determination of the % Inhibition for FXIIa (IC50, fluorogenic substrate H-DPro-Phe-Arg-AFC). The format is biochemical. The following applies: Human Factor XIIa (Enzyme Research Laboratories), 25° C. The protocol: Determination of the % Inhibition for FXIIa
Factor XIIa inhibitory activity in vitro was determined using standard published methods (see e.g. Shori et al., Biochem. Pharmacol., 1992,43, 1209; Baeriswyl et al., ACS Chem. Biol., 2015, 10 (8) 1861; Bouckaert et al., European Journal of Medicinal Chemistry 110 (2016) 181). Human Factor XIIa (Enzyme Research Laboratories) was incubated at 25° C. with the fluorogenic substrate H-DPro-Phe-Arg-AFC and various concentrations of the test compound. Residual enzyme activity (initial rate of reaction) was determined by measuring the change in […] at 410 nm and the IC50 value for the test compound was determined.

Another experiment addresses T2, Human FXIa (Homo sapiens, UniProt P03951).
T2 construct: purchased Enzyme Research Laboratories
Briefly: Determination of the % Inhibition for FXIa (IC50, fluorogenic substrate Z-Gly-Pro-Arg-AFC). The format is biochemical. The following applies: Selectivity, Human FXIa (Enzyme Research Laboratories), 25° C. The protocol:
Determination of the % Inhibition for FXIa
FXIa inhibitory activity in vitro was determined using standard published methods (see e.g. Johansen et al., Int. J. Tiss. Reac. 1986, 8, 185; Shori et al., Biochem. Pharmacol., 1992, 43, 1209; Stürzebecher et al., Biol. Chem. Hoppe-Seyler, 1992, 373, 1025). Human FXIa (Enzyme Research Laboratories) was incubated at 25° C. with the fluorogenic substrate Z-Gly-Pro-Arg-AFC and various concentrations of the test compound. Residual enzyme activity (initial rate of reaction) was determined by measuring the change in fluorescence at 410 nm and the IC50 value for the test compound was determined.

Bounds are passed on as bounds.

A word on the IC50: it is the point on the concentration scale where inhibition reaches its midpoint. A low value points to higher potency.

T2 sequence (P03951 388-625 limits assumed): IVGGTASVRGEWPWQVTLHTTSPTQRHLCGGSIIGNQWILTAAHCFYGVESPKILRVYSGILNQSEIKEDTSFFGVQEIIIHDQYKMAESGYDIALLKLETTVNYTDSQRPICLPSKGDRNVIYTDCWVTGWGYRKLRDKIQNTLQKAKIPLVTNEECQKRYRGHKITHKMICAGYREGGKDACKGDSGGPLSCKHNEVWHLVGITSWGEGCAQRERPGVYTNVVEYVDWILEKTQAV
T2 sequence (P03951 19-387 partner limits assumed): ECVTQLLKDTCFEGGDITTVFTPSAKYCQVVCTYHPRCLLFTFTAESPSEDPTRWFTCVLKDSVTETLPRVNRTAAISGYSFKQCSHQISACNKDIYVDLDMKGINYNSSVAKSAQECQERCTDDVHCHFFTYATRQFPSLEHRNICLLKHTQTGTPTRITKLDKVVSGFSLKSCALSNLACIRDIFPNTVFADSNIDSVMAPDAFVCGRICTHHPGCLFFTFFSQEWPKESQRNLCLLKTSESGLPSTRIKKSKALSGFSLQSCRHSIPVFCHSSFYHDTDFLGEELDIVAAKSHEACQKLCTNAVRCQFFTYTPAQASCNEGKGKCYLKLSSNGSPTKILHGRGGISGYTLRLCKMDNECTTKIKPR

In the case of `CN1CCC(Oc2ccc(NCc3ccc4c(N)nccc4c3)nc2)CC1` [Example 18.01, 6-(((5-((1-Methylpiperidin-4-yl)oxy)pyridin-2-yl)amino)methyl)isoquinolin-1-amine], the values for the concentration for half-maximal inhibition (IC50) on Human Factor XIIa and on Human FXIa were 1 to 3 µM and 36.4 µM, respectively.

On Human Factor XIIa, `CN1CCC(Oc2cnc(NCc3ccc4c(N)nccc4c3)nc2)CC1` [Example 18.02, 6-[({5-[(1-Methylpiperidin-4-yl)oxy]pyrimidin-2-yl}amino)methyl]isoquinolin-1-amine] came in with an IC50 of 10 to 40 µM.

For the compound `CN1CCC(OCc2ccc(NCc3ccc4c(N)nccc4c3)nc2)CC1` [Example 18.03, 6-(((5-(((1-Methylpiperidin-4-yl)oxy)methyl)pyridin-2-yl)amino)methyl)isoquinolin-1-amine], the IC50 against Human Factor XIIa is below 1 µM; against Human FXIa it was above 40 µM.

On to `CN1CCC(COc2ccc(NCc3ccc4c(N)nccc4c3)nc2)CC1` [Example 18.04, 6-(((5-((1-Methylpiperidin-4-yl)methoxy)pyridin-2-yl)amino)methyl)isoquinolin-1-amine], for which the IC50 against Human Factor XIIa is below 1 µM; at Human FXIa, above 40 µM.

Regarding `CN1CCC(Oc2cnc(NCc3ccc4c(N)nccc4c3)cn2)CC1` [Example 18.05], the IC50 against Human Factor XIIa is below 1 µM; against Human FXIa, 19.9 µM.

In turn, `CN1CCC(Oc2ccc(NCc3ccc4c(N)nccc4c3)nn2)CC1` [Example 18.06] had an IC50 at Human Factor XIIa of 1 to 3 µM.

Turning to `Nc1nccc2cc(CNc3ccc(OC4CCNCC4)cc3)ccc12` [Example 18.07], the IC50 on Human Factor XIIa lay within 1 to 3 µM.

Regarding `CN1CCC(Oc2ccc(NCc3ccc4c(N)nccc4c3)cc2)CC1` [Example 18.08, 6-(((4-((1-Methylpiperidin-4-yl)oxy)phenyl)amino)methyl)isoquinolin-1-amine], the results for the IC50 against Human Factor XIIa and against Human FXIa were below 1 µM and above 40 µM, respectively.

`Nc1nccc2cc(CNc3ccc(OCCN4CCOCC4)cn3)ccc12` [Example 18.09, 6-(((5-(2-Morpholinoethoxy)pyridin-2-yl)amino)methyl)isoquinolin-1-amine] gave an IC50 on Human Factor XIIa of 10 to 40 µM.

Consider `CN1CCC(COc2cnc(NCc3ccc4c(N)nccc4c3)cn2)CC1` [Example 18.10, 6-(((5-((1-Methylpiperidin-4-yl)methoxy)pyrazin-2-yl)amino)methyl)isoquinolin-1-amine], for which the 50% inhibitory concentration (IC50) at Human Factor XIIa is below 1 µM; at Human FXIa, 24.8 µM.

For the compound `CN1CCC(COc2ccc(NCc3ccc4c(N)nccc4c3)cn2)CC1` [Example 18.11, 6-(((6-((1-Methylpiperidin-4-yl)methoxy)pyridin-3-yl)amino)methyl)isoquinolin-1-amine], the concentration for half-maximal inhibition (IC50) at Human Factor XIIa is below 1 µM; at Human FXIa, 17.9 µM.

With `CN1CCC(COc2ccc(NCc3ccc4c(N)nccc4c3)cn2)CC1` [Example 18.12], at Human FXIa, inhibition was half-maximal at 33.1 µM (IC50).

The compound `CN1CCC(CNC(=O)c2ccc(NCc3ccc4c(N)nccc4c3)nc2)CC1` [Example 18.13] gave an IC50 against Human Factor XIIa of 3 to 10 µM.

Compound `CN1CCCC(COc2ccc(NCc3ccc4c(N)nccc4c3)nc2)C1` (stereo not shown) [Example 18.14] came in with an IC50 at Human Factor XIIa of 1 to 3 µM.

`CN1CCC(COc2ccc(NCc3ccc4c(N)nccc4c3)cc2CO)CC1` [Example 18.15, (5-(((1-Aminoisoquinolin-6-yl)methyl)amino)-2-((1-methylpiperidin-4-yl)methoxy)phenyl)methanol] registered an IC50 against Human Factor XIIa below 1 µM.

`CN1CCC(NC(=O)c2ccc(NCc3ccc4c(N)nccc4c3)nc2)CC1` [Example 18.16]: the IC50 against Human Factor XIIa was in the range of 10 to 40 µM.

Turning to `CN1CCC(COc2ccc(NCc3ccc4c(N)nccc4c3)cc2CCO)CC1` [Example 18.17], the IC50 against Human Factor XIIa was below 1 µM.

Regarding `CN1CCC(COc2ccc(NCc3ccc4c(N)nccc4c3)cc2)CC1` [Example 18.18, 6-(((4-((1-Methylpiperidin-4-yl)methoxy)phenyl)amino)methyl)isoquinolin-1-amine], on Human Factor XIIa, the IC50 was below 1 µM.

The compound `Nc1nccc2cc(CNc3ccc(COC4CCNCC4)cn3)ccc12` [Example 18.19, 6-(((5-((Piperidin-4-yloxy)methyl)pyridin-2-yl)amino)methyl)isoquinolin-1-amine] displayed an IC50 against Human Factor XIIa of 3 to 10 µM.

As for `CN1CCC(CNC(=O)c2cccc(NCc3ccc4c(N)nccc4c3)n2)CC1` [Example 18.201, 6-(((1-Aminoisoquinolin-6-yl)methyl)amino)-N-((1-methylpiperidin-4-yl)methyl)picolinamide], the half-maximal inhibitory concentration (IC50) on Human Factor XIIa was in the range of 3 to 10 µM.

For the compound `CN1CCC(Oc2ccnc(NCc3ccc4c(N)nccc4c3)c2)CC1` [Example 18.202, 6-(((4-((1-methylpiperidin-4-yl)oxy)pyridin-2-yl)amino)methyl)isoquinolin-1-amine], the IC50 on Human Factor XIIa was below 1 µM; at Human FXIa it was above 40 µM.

Compound `CN1CCC(Oc2cccc(NCc3ccc4c(N)nccc4c3)n2)CC1` [Example 18.203] came in with an IC50 at Human Factor XIIa of 10 to 40 µM.

On Human Factor XIIa, `CN1CCC(NC(=O)c2ccnc(NCc3ccc4c(N)nccc4c3)c2)CC1` [Example 18.204, 2-(((1-Aminoisoquinolin-6-yl)methyl)amino)-N-(1-methylpiperidin-4-yl)isonicotinamide] returned an IC50 of 3 to 10 µM.

`CN1CCN(C(=O)c2ccnc(NCc3ccc4c(N)nccc4c3)c2)CC1` [Example 18.205]: the IC50 at Human Factor XIIa lay within 10 to 40 µM.

The compound `CN1CCC(OCc2ccnc(NCc3ccc4c(N)nccc4c3)c2)CC1` [Example 18.206, 6-(((4-(((1-Methylpiperidin-4-yl)oxy)methyl)pyridin-2-yl)amino)methyl)isoquinolin-1-amine] displayed an IC50 at Human Factor XIIa of 1 to 3 µM.

For `CN1CCC(Oc2cncc(NCc3ccc4c(N)nccc4c3)n2)CC1` [Example 18.207, 6-(((6-((1-Methylpiperidin-4-yl)oxy)pyrazin-2-yl)amino)methyl)isoquinolin-1-amine], on Human Factor XIIa, the IC50 fell in the range of 10 to 40 µM.

In the case of `Nc1nccc2cc(CNc3cc(OCCN4CCOCC4)ccn3)ccc12` [Example 18.208], the IC50 against Human Factor XIIa was 10 to 40 µM.

For `CN1CCC(Oc2cc(NCc3ccc4c(N)nccc4c3)ncn2)CC1` [Example 18.209], the IC50 at Human Factor XIIa lay within 1 to 3 µM.

For the compound `CN1CCCC(Oc2ccnc(NCc3ccc4c(N)nccc4c3)c2)C1` (stereo not shown) [Example 18.210], the IC50 at Human Factor XIIa was in the range of 1 to 3 µM.

For `CN1CCC(Oc2cccc(NCc3ccc4c(N)nccc4c3)c2)CC1` [Example 18.211], the IC50 against Human Factor XIIa was in the range of 1 to 3 µM.

On to `CN1CCC(Oc2cncc(NCc3ccc4c(N)nccc4c3)c2)CC1` [Example 18.212], for which the IC50 on Human Factor XIIa fell in the range of 1 to 3 µM.

In turn, `Nc1nccc2cc(CNc3cc(OC4CCNCC4)ccn3)ccc12` [Example 18.213, 6-(((4-(Piperidin-4-yloxy)pyridin-2-yl)amino)methyl)isoquinolin-1-amine] had an IC50 on Human Factor XIIa of 3 to 10 µM.

For the origin of these results see patent publication US20220363668A1, “ENZYME INHIBITORS” (KALVISTA PHARMACEUTICALS LIMITED, priority 2019, published 2022).
